What all share (assay): Kinase panel profiling at 1 µmol/L (MSA or IMAP), percentage inhibition
Common to all, as to format: biochemical

Assay [1] has as its target T1, panel of 255 wild-type kinases (Homo sapiens, UniProt P29322).
T1 sequence (P29322 28-1005): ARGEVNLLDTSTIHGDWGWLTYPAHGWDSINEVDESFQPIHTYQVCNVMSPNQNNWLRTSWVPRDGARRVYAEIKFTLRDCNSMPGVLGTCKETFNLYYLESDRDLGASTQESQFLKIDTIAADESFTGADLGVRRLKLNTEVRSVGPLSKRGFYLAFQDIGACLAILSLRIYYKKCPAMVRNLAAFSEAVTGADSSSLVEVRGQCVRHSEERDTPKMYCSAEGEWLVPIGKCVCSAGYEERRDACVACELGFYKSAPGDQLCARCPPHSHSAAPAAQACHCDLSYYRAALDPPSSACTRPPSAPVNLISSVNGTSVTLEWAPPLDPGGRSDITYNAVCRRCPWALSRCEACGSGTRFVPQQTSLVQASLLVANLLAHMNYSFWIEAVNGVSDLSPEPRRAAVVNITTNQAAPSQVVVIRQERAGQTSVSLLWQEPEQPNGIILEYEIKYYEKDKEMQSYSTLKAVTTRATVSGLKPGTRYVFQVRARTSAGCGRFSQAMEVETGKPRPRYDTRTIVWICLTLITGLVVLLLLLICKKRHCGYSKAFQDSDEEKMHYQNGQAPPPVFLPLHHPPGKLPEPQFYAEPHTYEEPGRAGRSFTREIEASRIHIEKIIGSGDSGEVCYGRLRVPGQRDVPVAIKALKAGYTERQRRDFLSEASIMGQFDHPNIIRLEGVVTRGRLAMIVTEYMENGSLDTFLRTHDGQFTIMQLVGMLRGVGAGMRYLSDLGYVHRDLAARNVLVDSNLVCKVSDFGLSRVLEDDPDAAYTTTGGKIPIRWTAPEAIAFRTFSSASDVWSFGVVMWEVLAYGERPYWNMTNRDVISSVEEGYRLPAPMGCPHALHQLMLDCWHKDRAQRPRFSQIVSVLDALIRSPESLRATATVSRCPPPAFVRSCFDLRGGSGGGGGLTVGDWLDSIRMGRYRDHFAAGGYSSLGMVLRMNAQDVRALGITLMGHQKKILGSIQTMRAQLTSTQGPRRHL
The conditions noted are these: kinase EPHA8; 1 µmol/L single concentration; read-out: %-inhibition at 1 µmol/L, EPHA8.

Assay [2] has as its target panel of 255 wild-type kinases (Homo sapiens, UniProt P04629). The conditions noted are these: kinase TRKA; 1 µmol/L single concentration; read-out: %-inhibition at 1 µmol/L, TRKA.
Assay [3] has as its target T2, panel of 255 wild-type kinases (Homo sapiens, UniProt P52333).
T2 sequence (P52333 1-1124): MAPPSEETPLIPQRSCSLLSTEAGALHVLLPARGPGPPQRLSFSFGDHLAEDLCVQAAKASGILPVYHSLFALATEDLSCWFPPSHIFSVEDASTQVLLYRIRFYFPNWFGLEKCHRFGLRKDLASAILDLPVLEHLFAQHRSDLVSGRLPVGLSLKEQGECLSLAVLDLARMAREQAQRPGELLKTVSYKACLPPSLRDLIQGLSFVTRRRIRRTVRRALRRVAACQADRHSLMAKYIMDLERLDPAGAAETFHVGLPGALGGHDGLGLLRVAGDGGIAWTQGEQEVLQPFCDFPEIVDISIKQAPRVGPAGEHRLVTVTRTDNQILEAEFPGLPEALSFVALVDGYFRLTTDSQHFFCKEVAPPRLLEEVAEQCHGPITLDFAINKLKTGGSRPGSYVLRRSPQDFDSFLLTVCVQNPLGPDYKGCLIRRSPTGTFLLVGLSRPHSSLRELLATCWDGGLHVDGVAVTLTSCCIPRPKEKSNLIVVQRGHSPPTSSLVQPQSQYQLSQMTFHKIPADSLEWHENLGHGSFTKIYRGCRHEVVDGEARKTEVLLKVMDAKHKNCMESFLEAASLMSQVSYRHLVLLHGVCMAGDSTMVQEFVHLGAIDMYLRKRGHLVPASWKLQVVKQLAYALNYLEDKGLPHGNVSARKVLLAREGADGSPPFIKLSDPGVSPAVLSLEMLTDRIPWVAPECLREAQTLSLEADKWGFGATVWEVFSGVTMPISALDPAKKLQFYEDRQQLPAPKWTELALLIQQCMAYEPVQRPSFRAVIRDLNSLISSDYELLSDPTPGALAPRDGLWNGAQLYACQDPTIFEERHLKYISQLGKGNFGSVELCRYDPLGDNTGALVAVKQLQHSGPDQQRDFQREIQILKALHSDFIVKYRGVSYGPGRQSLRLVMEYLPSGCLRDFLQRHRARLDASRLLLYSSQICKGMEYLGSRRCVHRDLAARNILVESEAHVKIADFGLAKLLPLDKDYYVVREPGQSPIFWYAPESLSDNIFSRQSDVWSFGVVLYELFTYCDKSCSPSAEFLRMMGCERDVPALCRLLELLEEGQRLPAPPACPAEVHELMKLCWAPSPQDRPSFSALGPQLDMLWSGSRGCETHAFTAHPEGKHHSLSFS
The conditions noted are these: kinase JAK3; 1 µmol/L single concentration; read-out: %-inhibition at 1 µmol/L, JAK3.

The target in assay [4] is panel of 255 wild-type kinases (Homo sapiens, UniProt P29376). The conditions noted are these: kinase LTK; 1 µmol/L single concentration; read-out: %-inhibition at 1 µmol/L, LTK.
Assay [5] deals with T3, panel of 255 wild-type kinases (Homo sapiens, UniProt P41743).
T3 sequence (P41743 1-596): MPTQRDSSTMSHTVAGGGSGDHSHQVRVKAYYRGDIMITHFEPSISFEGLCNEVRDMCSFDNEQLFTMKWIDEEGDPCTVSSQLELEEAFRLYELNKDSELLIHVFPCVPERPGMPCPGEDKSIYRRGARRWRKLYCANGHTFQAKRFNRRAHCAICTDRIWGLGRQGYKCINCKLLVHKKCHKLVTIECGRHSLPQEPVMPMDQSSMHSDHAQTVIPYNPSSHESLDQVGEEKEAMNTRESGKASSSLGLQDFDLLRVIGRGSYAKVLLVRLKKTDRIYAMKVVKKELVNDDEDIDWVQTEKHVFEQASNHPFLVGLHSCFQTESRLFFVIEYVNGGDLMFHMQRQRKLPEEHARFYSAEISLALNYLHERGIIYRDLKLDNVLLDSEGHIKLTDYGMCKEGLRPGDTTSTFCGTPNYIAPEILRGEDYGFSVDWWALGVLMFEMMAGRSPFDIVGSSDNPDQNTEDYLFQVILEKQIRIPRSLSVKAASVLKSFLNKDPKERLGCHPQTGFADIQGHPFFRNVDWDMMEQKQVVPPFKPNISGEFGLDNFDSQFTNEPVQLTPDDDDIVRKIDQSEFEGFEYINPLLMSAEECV
The conditions noted are these: kinase PKCι; 1 µmol/L single concentration; read-out: %-inhibition at 1 µmol/L, PKCι.

Regarding `Cc1nc(NC(=O)N2CCC[C@H]2C(N)=O)sc1-c1ccnc(C(C)(C)C(F)(F)F)c1` [alpelisib], the inhibition at 1 µM in assay [1] was -6.59%; in assay [2], 6.61%; in assay [3], 0.447%; in assay [4], -2.85%; in assay [5], 21%.
The like results for `FC(F)(F)c1ccc(CNc2ccc(Cc3c[nH]c4ncc(Cl)cc34)cn2)cn1` [pexidartinib] were, in that order, 6.33%, 79%, 40%, 10% and 23%.
For `CCc1nc(C(N)=O)c(Nc2ccc(N3CCC(N4CCN(C)CC4)CC3)c(OC)c2)nc1NC1CCOCC1` [gilteritinib], in that order: 66%, 100%, 91%, 101% and 28%.
The like results for `O=C(Nc1cnn2ccc(N3CCC[C@@H]3c3cc(F)ccc3F)nc12)N1CC[C@H](O)C1` [larotrectinib] were, in that order, -9%, 99%, 6%, 16% and -6%.

These data come from publication PMC9516332 (Frontiers in Oncology, 2022).
